From PubChem BioAssay AID256 (DTP/NCI, 2004)
Values joined by “and” are separate entries in the source; they are usually repeats but may differ in a detail not shown here. Equal entries are not always repeated. Toxic doses and inconclusive results are not listed.

Test system: CD2F1 mice, L1210 leukemia ip, survival T/C
Assay: NCI In Vivo Anticancer Drug Screen. Data for tumor model L1210 Leukemia (intraperitoneal) in CD2F1 (CDF1) mice
Conditions: higher = longer survival
Outline: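 Compound-dosed mice with transplantable tumor versus matched vehicle controls; endpoint ratio T/C reported.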

O=c1n(CC2CO2)c(=O)n(CC2CO2)c(=O)n1CC1CO1 (stereo unspecified)
T/C (endpoint: mean survival time, dose: 6.25 mg/kg/injection, schedule: Q01DX009 (ip), vehicle: suspension in saline): 206 % of control and 123 % of control | T/C (endpoint: mean survival time, dose: 12.5 mg/kg/injection, schedule: Q01DX009 (ip), vehicle: saline with Tween-80): 166 % of control and 157 % of control | T/C (endpoint: mean survival time, dose: 12.5 mg/kg/injection, schedule: Q01DX009 (ip), vehicle: suspension in saline): 162 % of control | T/C (endpoint: mean survival time, dose: 20.0 mg/kg/injection, schedule: Q01DX009 (ip), vehicle: saline): 178 % of control | T/C (endpoint: mean survival time, dose: 25.0 mg/kg/injection, schedule: Q01DX009 (ip), vehicle: saline with Tween-80): 291 % of control | T/C (endpoint: mean survival time, dose: 25.0 mg/kg/injection, schedule: Q01DX009 (ip), vehicle: saline): 151 % of control and 177 % of control and 158 % of control | T/C (endpoint: mean survival time, dose: 25.0 mg/kg/injection, schedule: Q01DX009 (ip), vehicle: suspension in saline): 276 % of control and 152 % of control | T/C (endpoint: mean survival time, dose: 25.0 mg/kg/injection, schedule: Q04DX003 (ip), vehicle: saline): 182 % of control | T/C (endpoint: mean survival time, dose: 25.0 mg/kg/injection, schedule: Q04DX005 (ip), vehicle: saline): 165 % of control | T/C (endpoint: mean survival time, dose: 30.0 mg/kg/injection, schedule: Q01DX009 (ip), vehicle: saline): 164 % of control | T/C (endpoint: mean survival time, dose: 30.0 mg/kg/injection, schedule: Q01DX010 (ip), vehicle: saline): 166 % of control | T/C (endpoint: mean survival time, dose: 40.0 mg/kg/injection, schedule: Q01DX009 (ip), vehicle: saline): 300 % of control and 109 % of control | T/C (endpoint: mean survival time, dose: 40.0 mg/kg/injection, schedule: Q01DX010 (ip), vehicle: saline): 195 % of control | T/C (endpoint: mean survival time, dose: 50.0 mg/kg/injection, schedule: Q01DX001 (ip), vehicle: saline): 160 % of control and 205 % of control | T/C (endpoint: mean survival time, dose: 50.0 mg/kg/injection, schedule: Q01DX009 (ip), vehicle: saline with Tween-80): 170 % of control | T/C (endpoint: mean survival time, dose: 50.0 mg/kg/injection, schedule: Q01DX009 (ip), vehicle: saline): 151 % of control | T/C (endpoint: mean survival time, dose: 50.0 mg/kg/injection, schedule: Q01DX009 (ip), vehicle: suspension in saline): 94 % of control | T/C (endpoint: mean survival time, dose: 50.0 mg/kg/injection, schedule: Q01DX010 (ip), vehicle: saline): 219 % of control | T/C (endpoint: mean survival time, dose: 50.0 mg/kg/injection, schedule: Q04DX003 (ip), vehicle: saline): 187 % of control | T/C (endpoint: mean survival time, dose: 50.0 mg/kg/injection, schedule: Q04DX005 (ip), vehicle: saline): 259 % of control and 340 % of control | T/C (endpoint: mean survival time, dose: 60.0 mg/kg/injection, schedule: Q01DX001 (ip), vehicle: saline): 168 % of control and 202 % of control | T/C (endpoint: mean survival time, dose: 60.0 mg/kg/injection, schedule: Q01DX009 (ip), vehicle: saline): 467 % of control | T/C (endpoint: mean survival time, dose: 70.0 mg/kg/injection, schedule: Q01DX001 (ip), vehicle: saline): 291 % of control | T/C (endpoint: mean survival time, dose: 75.0 mg/kg/injection, schedule: Q01DX009 (ip), vehicle: saline): 91 % of control | T/C (endpoint: mean survival time, dose: 75.0 mg/kg/injection, schedule: Q04DX003 (ip), vehicle: saline): 154 % of control | T/C (endpoint: mean survival time, dose: 75.0 mg/kg/injection, schedule: Q04DX005 (ip), vehicle: saline): 208 % of control and 581 % of control | T/C (endpoint: mean survival time, dose: 80.0 mg/kg/injection, schedule: Q01DX001 (ip), vehicle: saline): 202 % of control and 351 % of control | T/C (endpoint: mean survival time, dose: 80.0 mg/kg/injection, schedule: Q01DX009 (ip), vehicle: saline): 104 % of control | T/C (endpoint: median survival time, dose: 5.0 mg/kg/injection, schedule: Q03HX024 (ip), vehicle: saline): 167 % of control | T/C (endpoint: median survival time, dose: 10.0 mg/kg/injection, schedule: Q03HX008 (ip), vehicle: saline): 167 % of control | T/C (endpoint: median survival time, dose: 10.0 mg/kg/injection, schedule: Q03HX016 (ip), vehicle: saline): 176 % of control | T/C (endpoint: median survival time, dose: 10.0 mg/kg/injection, schedule: Q03HX024 (ip), vehicle: saline): 212 % of control | T/C (endpoint: median survival time, dose: 12.5 mg/kg/injection, schedule: Q01DX001 (ip), vehicle: saline): 121 % of control | T/C (endpoint: median survival time, dose: 12.5 mg/kg/injection, schedule: Q01DX001 (iv), vehicle: saline): 101 % of control | T/C (endpoint: median survival time, dose: 12.5 mg/kg/injection, schedule: Q01DX005 (ip), vehicle: saline): 150 % of control | T/C (endpoint: median survival time, dose: 12.5 mg/kg/injection, schedule: Q01DX005 (iv), vehicle: saline): 113 % of control | T/C (endpoint: median survival time, dose: 12.5 mg/kg/injection, schedule: Q01DX009 (oral), vehicle: saline): 105 % of control | T/C (endpoint: median survival time, dose: 20.0 mg/kg/injection, schedule: Q01DX009 (ip), vehicle: saline): 175 % of control | T/C (endpoint: median survival time, dose: 20.0 mg/kg/injection, schedule: Q03HX008 (ip), vehicle: saline): 637 % of control | T/C (endpoint: median survival time, dose: 20.0 mg/kg/injection, schedule: Q03HX016 (ip), vehicle: saline): 172 % of control | T/C (endpoint: median survival time, dose: 20.0 mg/kg/injection, schedule: Q03HX024 (ip), vehicle: saline): 116 % of control | T/C (endpoint: median survival time, dose: 25.0 mg/kg/injection, schedule: Q01DX001 (iv), vehicle: saline): 107 % of control | T/C (endpoint: median survival time, dose: 25.0 mg/kg/injection, schedule: Q01DX005 (ip), vehicle: saline): 380 % of control | T/C (endpoint: median survival time, dose: 25.0 mg/kg/injection, schedule: Q01DX009 (oral), vehicle: saline): 110 % of control | T/C (endpoint: median survival time, dose: 25.0 mg/kg/injection, schedule: Q04DX003 (ip), vehicle: saline): 167 % of control | T/C (endpoint: median survival time, dose: 40.0 mg/kg/injection, schedule: Q01DX005 (ip), vehicle: saline): 216 % of control | T/C (endpoint: median survival time, dose: 40.0 mg/kg/injection, schedule: Q01DX009 (ip), vehicle: saline): 253 % of control and 750 % of control | T/C (endpoint: median survival time, dose: 40.0 mg/kg/injection, schedule: Q03HX016 (ip), vehicle: saline): 160 % of control | T/C (endpoint: median survival time, dose: 50.0 mg/kg/injection, schedule: Q01DX001 (ip), vehicle: saline): 160 % of control and 166 % of control | T/C (endpoint: median survival time, dose: 50.0 mg/kg/injection, schedule: Q01DX005 (ip), vehicle: saline): 750 % of control | T/C (endpoint: median survival time, dose: 50.0 mg/kg/injection, schedule: Q01DX009 (ip), vehicle: saline): 750 % of control | T/C (endpoint: median survival time, dose: 50.0 mg/kg/injection, schedule: Q04DX003 (ip), vehicle: saline): 253 % of control | T/C (endpoint: median survival time, dose: 50.0 mg/kg/injection, schedule: Q04DX003 (oral), vehicle: saline): 116 % of control | T/C (endpoint: median survival time, dose: 50.0 mg/kg/injection, schedule: Q08DX002 (ip), vehicle: saline): 187 % of control | T/C (endpoint: median survival time, dose: 60.0 mg/kg/injection, schedule: Q01DX005 (ip), vehicle: saline): 275 % of control | T/C (endpoint: median survival time, dose: 60.0 mg/kg/injection, schedule: Q01DX009 (ip), vehicle: saline): 178 % of control | T/C (endpoint: median survival time, dose: 70.0 mg/kg/injection, schedule: Q01DX005 (ip), vehicle: saline): 110 % of control | T/C (endpoint: median survival time, dose: 100.0 mg/kg/injection, schedule: Q01DX001 (iv), vehicle: saline): 100 % of control | T/C (endpoint: median survival time, dose: 100.0 mg/kg/injection, schedule: Q01DX001 (oral), vehicle: saline): 123 % of control | T/C (endpoint: median survival time, dose: 100.0 mg/kg/injection, schedule: Q08DX002 (ip), vehicle: saline): 122 % of control | T/C (endpoint: median survival time, dose: 150.0 mg/kg/injection, schedule: Q01DX005 (oral), vehicle: saline): 116 % of control | T/C (endpoint: median survival time, dose: 200.0 mg/kg/injection, schedule: Q01DX009 (oral), vehicle: saline): 151 % of control | T/C (endpoint: median survival time, dose: 200.0 mg/kg/injection, schedule: Q04DX003 (oral), vehicle: saline): 191 % of control | T/C (endpoint: median survival time, dose: 200.0 mg/kg/injection, schedule: Q08DX002 (oral), vehicle: saline): 163 % of control | T/C (endpoint: median survival time, dose: 250.0 mg/kg/injection, schedule: Q01DX009 (oral), vehicle: saline): 151 % of control | T/C (endpoint: median survival time, dose: 250.0 mg/kg/injection, schedule: Q08DX002 (ip), vehicle: saline): 160 % of control | T/C (endpoint: median survival time, dose: 300.0 mg/kg/injection, schedule: Q04DX003 (oral), vehicle: saline): 221 % of control and 122 % of control | T/C (endpoint: median survival time, dose: 300.0 mg/kg/injection, schedule: Q08DX002 (oral), vehicle: saline): 185 % of control | T/C (endpoint: median survival time, dose: 350.0 mg/kg/injection, schedule: Q01DX001 (ip), vehicle: saline): 151 % of control | T/C (endpoint: median survival time, dose: 350.0 mg/kg/injection, schedule: Q04DX003 (oral), vehicle: saline): 122 % of control | T/C (endpoint: median survival time, dose: 350.0 mg/kg/injection, schedule: Q08DX002 (oral), vehicle: saline): 119 % of control | T/C (endpoint: median survival time, dose: 400.0 mg/kg/injection, schedule: Q04DX003 (oral), vehicle: saline): 120 % of control | T/C (endpoint: median survival time, dose: 450.0 mg/kg/injection, schedule: Q01DX001 (ip), vehicle: saline): 160 % of control | T/C (endpoint: median survival time, dose: 450.0 mg/kg/injection, schedule: Q04DX003 (oral), vehicle: saline): 118 % of control | T/C (endpoint: median survival time, dose: 450.0 mg/kg/injection, schedule: Q08DX002 (oral), vehicle: saline): 118 % of control | T/C (endpoint: median survival time, dose: 500.0 mg/kg/injection, schedule: Q08DX002 (oral), vehicle: saline): 123 % of control
